This experiment has as its system chronic fingernail biting. As to the kind of experiment: Treatment of a subject with chronic fingernail biting (Example 1). In kind it is in vivo, human. How it is done: A subject presented with chronic fingernail biting. The subject was treated with 60 mg of tomoxetine hydrochloride, twice daily for 13 consecutive days. […] The patient's chronic fingernail biting behavior resumed upon termination of treatment with tomoxetine hydrochloride.

Data on 1 compound can be found in patent US20040034106A1, “Treatment of anxiety disorders” (priority 2003, published 2004).

Structures can show the parent of a compound that is named as a salt.

Take `CNCC[C@@H](Oc1ccccc1C)c1ccccc1` [tomoxetine hydrochloride, (R)-(−)-N-methyl-3-(2-methylphenoxy)-3-phenylpropylamine]: under “60 mg twice daily for 13 consecutive days, healthy appearing fingernails except for one finger”, the “chronic fingernail biting at final assessment” value is recorded as “significant improvement”. The “chronic fingernail biting behavior upon termination of treatment” value (after 60 mg twice daily for 13 consecutive days was stopped) is “resumed”.
